Experimental data as given in patent US6984500B2, “Method for detecting microorganisms and detection kit” (priority 2001, dated 2006).
Converted amounts (≈) assume the structure as drawn.

Key:
A. fumigatus ATCC 26430 [1] = experiment: Colorimetric microplate drug susceptibility test (WST-8 coloring reagent, sucrose YN broth, NaOH sensitizing solution); assay type: cell-based, Aspergillus Fumigatus; details: for Drug concentration at or above which almost no color was exhibited visually: visual reading
Description: (§1) Aspergillus Fumigatus ATCC26430 was used.
The drug solutions so prepared were pipetted into a plate at 0.02 mL/well and dried to a solid under reduced pressure for 24 hours. A coloring reagent (containing 0.7 mmol/L WST-8, 0.0035 mmol/L 1-methoxy PMS, 0.5 mmol/L potassium ferricyanide, and 0.5 mmol/L of potassium ferrocyanide) was pipetted into each of the wells at 0.02 mL/well and they were again dried to a solid under reduced pressure for 24 hours.
6.7 g of YN Base (manufactured by Difco) and 20 g of sucrose were dissolved in about 900 mL of purified water, and the pH was adjusted to 7.0 with a 1N aqueous solution of sodium hydroxide. The solution was made up to 1000 mL with purified water and then filter sterilized using a 0.2 μm filter.
A tester strain was cultured using Sabouraud Dextrose Agar (manufactured by OXOID) at 35° C. for 7 days. 2 mL of sterile physiological saline containing 0.1% Tween 80 was added dropwise onto the culture medium so as to float spores. The above-mentioned physiological saline that had been added dropwise onto the culture medium was recovered and allowed to stand for 3 to 5 minutes, and after removing the precipitate it was mixed using a Vortex mixer to give a spore suspension. Dilution was carried out so that the absorbance at 530 nm was 0.09 to 0.11. 0.1 mL of the spore suspension so prepared was taken using a micro pipette, added to 20 mL of sucrose YN broth, and stirred using a Vortex mixer to give an inoculum. 0.2 mL of the inoculum was pipetted into each of the wells of the microplate for the test described in B, the plate was covered, and culturing was carried out at 35° C.±1° C. for 24 hours. As a blank, sucrose YN broth was added instead of the inoculum.
After 24 hours 0.02 mL of a 1.5 mol/L aqueous solution of sodium hydroxide was added to each well, and 5 minutes after the addition the absorbance at 630 nm was measured.
2. For ITCZ, the 80% inhibitory concentration (IC80) was determined.

A. fumigatus ATCC 26430 [2] = details: reference values of NCCLS M38-P; cited from earlier work
A. fumigatus ATCC 26430 [3] = experiment: NCCLS M-38P turbidity method (0.2 mL micro broth dilution) antifungal susceptibility test; assay type: cell-based; details: Aspergillus fumigatus, ATCC26430, repeated tests, determination time 46 to 50 hours
Description: as §1
A comparative example was carried out according to NCCLS M-38P (0.2 mL culture system micro broth dilution method).

Structure (SMILES) | Drug concentration at or above which almost no color was exhibited visually (A. fumigatus ATCC 26430 [1]; 24 hours culture) [µg/mL] | Allowable range (MIC reference values described in NCCLS M38-P) (A. fumigatus ATCC 26430 [2]) [µg/mL] | MIC (A. fumigatus ATCC 26430 [3]) [µg/mL] | Drug concentration at or below which absorbance at 630 nm increased (FIG. 2) (A. fumigatus ATCC 26430 [1]; 24 hours culture, absorbance at 630 nm) [µg/mL] | MIC (A. fumigatus ATCC 26430 [1]; Aspergillus fumigatus, ATCC26430, 24 h) [µg/mL]
C[C@@H]1[C@H](O)[C@@H](C)/C=C/C=C/C=C/C=C/C=C/C=C/C=C/[C@H](O[C@@H]2O[C@H](C)[C@@H](O)[C@H](N)[C@@H]2O)C[C@@H]2O[C@](O)(C[C@@H](O)C[C@@H](O)[C@H](O)CC[C@@H](O)C[C@@H](O)CC(=O)O[C@H]1C)C[C@H](O)[C@H]2C(=O)O [AMPH, Amphotericin B] | ≥ 0.5 | 0.5 to 2.0 |  |  | 
CCC(C)n1ncn(-c2ccc(N3CCN(c4ccc(OCC5COC(Cn6cncn6)(c6ccc(Cl)cc6Cl)O5)cc4)CC3)cc2)c1=O (stereo not drawn) [ITCZ, Itraconazole] | ≥ 0.12 |  | 0.12 to 0.25 (≈ 0.17 to 0.354 µM) | ≤ 0.06 | 0.12 to 0.25
